In assay [1] the test system is E.f820. In words: Antibacterial screening (MIC) of compounds of Example 2, E.f820. The settings on record: Example 2 compounds, fully vancomycin-resistant strain E.f820; for MIC: read-out: Antibacterial activity μg/mL, E.f820. The class given is cell-based, Enterrococci faecium. On the procedure:
(§1) • All assays used the Staphylococcus aureus strain ATCC 6538P. • Assays described in Chapter 5 additionally used the vancomycin-resistant enterococci and vancomycin-sensitive enterococci strains Ef243, Ef449, Ef820 and Ef487. Culture Media • Mueller-Hinton Broth Medium (MHB): MHB (Oxoid CM405) was prepared with final concentrations of […] MgCl2 and 2 μg/mL CaCl2. Culture medium was pre-warmed for approximately 2-3 h at 37° C. before use. • Mueller-Hinton Agar Medium (MHA): MMB containing 1.5% Agar (Merck Agar 1.01614). Maintenance of Bacteria • From a thawed cryovial, the bacteria was streaked onto MHA and the plate incubated overnight at 37° C. • From this plate, 10 cryovials were prepared by looping several colonies into 0.5 mL of 20% glycerol solution. The cryovials were immediately stored at −140° C. Preparation of Seed Cultures • A cryovial was removed from −140° C. storage and thawed at room temperature. • An MHA plate was streaked with a loopful of bacterial suspension and incubated overnight at 37° C. to create a parent plate (P1). • A daughter plate (D1) was streaked from the parent plate and incubated overnight at 37° C. […] The second parent plate (P2) was used to generate two additional daughter plates using the procedure outlined above before being discarded. • Cryovials were used twice to prepare parent plates (P1 and P2) before being discarded. […] A vancomycin control set (triplicate) and a compound negative control set (triplicate) were also included on each plate (FIG. 1). • The inoculated culture medium was incubated at 37° C. for 30 min, with shaking at 130 rpm. • Using a multichannel pipette, the contents of the first row were mixed before 50 μL was transferred to the second row. The pipette tips were changed and the process repeated by 50 μL of the mixed broth solutions in the second row being transferred to the third row. This process was repeated until the last row contained either the diluted test compound or a control (vancomycin or compound-negative). […] Antibacterial Testing of Compounds of Example 2 Introduction
(§2) The specific testing procedures and protocols are outlined in the section “Antibacterial Screening Methodology for the Compounds of Example 2”.
(§3) Vancomycin was used as the standard/control.

In assay [2] the test system is E.f987. In words: Antibacterial screening (MIC) of compounds of Example 2, E.f987. The class given is cell-based, Enterococcus faecium. The following applies: Enterococcus faecium; Example 2 compounds; enterococci strain E.f987; read-out: Antibacterial activity μg/mL, E.f987.
Assay [3] deals with Staphylococcus aureus strain ATCC 6538P. The experiment in a line: Antibacterial screening (MIC) of compounds of Example 2, S. aureus, Mueller-Hinton broth. The class given is cell-based. On the procedure: Antibacterial Screening Methodology for Compounds of Example 2
as §1, §2
The antibacterial activity results are measured by minimum inhibitory concentration (MIC), which is the lowest concentration of compound necessary to prevent bacterial growth.

The subject of assay [4] is E.f243. In words: Antibacterial screening (MIC) of compounds of Example 2, E.f243. The class given is cell-based, Enterococcus faecium. The settings on record: Enterococcus faecium; Example 2 compounds; enterococci strain E.f243; read-out: Antibacterial activity μg/mL, E.f243. On the procedure: as §1, §2, §3
Assay [5] relates to E.f449. In words: Antibacterial screening (MIC) of compounds of Example 2, E.f449. The class given is cell-based, Enterococcus faecium. The settings on record: Enterococcus faecium; Example 2 compounds; enterococci strain E.f449; read-out: Antibacterial activity μg/mL, E.f449. On the procedure:
as §1, §2, §3

[6] abbreviates: Staphylococcus aureus, ATCC6538P, Example 2 compounds (linear cationic peptides), S. aureus, vancomycin-susceptible strain, read-out: Antibacterial activity μg/mL, S.a.
Setting [7] is: Staphylococcus aureus, ATCC6538P, Example 2 compounds, S. aureus, 18 h, 37° C., read-out: Antibacterial activity (MIC μg/mL).

Where a name gives a salt, the structure may show the parent alone. Read-outs that look alike come from different tables or passages of the source. Square brackets hold non-standard residues; d marks the D form. Peptide text beside a SMILES is read from it. * marks the point of attachment. Fmoc = O=C(OCC1c2ccccc2-c2ccccc21)*; dAllylGly = C=CC[C@@H](N)C(=O)O; AllylGly = C=CC[C@H](N)C(=O)O Where only a bound is given, the exact number is not on record here.

Regarding `C=CCOc1ccc(C[C@H](NC(=O)[C@@H](CCCNC(=N)N)NC(=O)COc2ccc3ccccc3c2-c2c(OCC=C)ccc3ccccc23)C(=O)OC)cc1.Cl` (atropisomer, axis not shown) [Compound 120], the MIC in assay [1] amounted to 62.5 µg/mL; in assay [2], 62.5 µg/mL; in assay [3] (setting [6]), 3.9 µg/mL; in assay [4], 62.5 µg/mL; in assay [5], 62.5 µg/mL.
Regarding `C=CCOc1ccc(C[C@H](NC(=O)[C@@H](CCCNC(=N)N)NC(=O)COc2ccc3ccccc3c2-c2c(O)ccc3ccccc23)C(=O)OC)cc1.Cl` (atropisomer, axis not shown) [Compound 121, Methyl(2S,5R)-2-allyloxybenzyl-3,6-diaza-8-(2-[2′-hydroxy-{1,1′}-(S)-binaphthalen-2-yloxy])-5-(3-[guanidino]propyl)-4,7-dioxooctanoate], the MIC in assay [1] is 125 µg/mL; in assay [2], above 125 µg/mL; in assay [3] (setting [6]), 7.8 µg/mL; in assay [4], 125 µg/mL; in assay [5], 125 µg/mL.
On to `C=CCOc1ccc2ccccc2c1-c1c(OCC(=O)N[C@H](CCCCN)C(=O)N[C@H](CCCNC(=N)N)C(=O)N[C@@H](CC=C)C(=O)OCc2ccccc2)ccc2ccccc12.Cl.Cl` (atropisomer, axis not shown) [Compound 132], for which the MIC in assay [1] stood at 31.3 µg/mL; in assay [2], 62.5 µg/mL; in assay [3] (setting [6]) it was 3.9 µg/mL; in assay [4], 31.3 µg/mL; in assay [5], 31.3 µg/mL.
Turning to `C=CC[C@H](NC(=O)[C@@H](CCCNC(=N)N)NC(=O)[C@@H](CCCCN)NC(=O)COc1ccc2ccccc2c1-c1c(OC)ccc2ccccc12)C(=O)OCc1ccccc1.Cl.Cl` (atropisomer, axis not shown) [Compound 135], the MIC in assay [1] worked out at 62.5 µg/mL; in assay [2], 125 µg/mL; in assay [3] (setting [6]) it was 7.8 µg/mL; in assay [4], 125 µg/mL; in assay [5], 62.5 µg/mL.
Turning to `C=CC[C@H](NC(=O)[C@@H](CCCNC(=N)N)NC(=O)[C@@H](CCCCN)NC(=O)COc1ccc2ccccc2c1-c1c(O)ccc2ccccc12)C(=O)OCc1ccccc1.Cl.Cl` (atropisomer, axis not shown) [Compound 136, Benzyl(2S,5R,8R)-2-allyl-3,6,9-triaza-8-(butylamino)-5-(3-guanidinopropyl)-11-(2-[2′-hydroxy-{1,1′}-(S)-binaphthalen-2-yloxy])-4,7,10-trioxoundecanoate dihydrochloride], the MIC in assay [1] came to 62.5 µg/mL; in assay [2], 125 µg/mL; in assay [3] (setting [6]), 7.8 µg/mL; in assay [4], 125 µg/mL; in assay [5], 62.5 µg/mL.
`C=CC[C@H](NC(=O)[C@@H](CCCNC(=N)N)NC(=O)[C@@H](CCCCN)NC(=O)COc1ccc2ccccc2c1-c1c(OCCCc2ccccc2)ccc2ccccc12)C(=O)OCc1ccccc1.Cl.Cl` (atropisomer, axis not shown) [Compound 137]: the MIC in assay [1] is 31.3 µg/mL; in assay [2] it was 62.5 µg/mL; in assay [3] (setting [6]), 3.9 µg/mL; in assay [4], 62.5 µg/mL; in assay [5], 31.3 µg/mL.
Regarding `C=CC[C@H](NC(=O)[C@@H](CCCNC(=N)N)NC(=O)[C@@H](CCCCN)NC(=O)COc1ccc2ccccc2c1-c1c(OCCC(C)C)ccc2ccccc12)C(=O)OCc1ccccc1.Cl.Cl` (atropisomer, axis not shown) [Compound 138], the MIC was 15.6 µg/mL in assay [1]; 31.3 µg/mL in assay [2]; 3.9 µg/mL in assay [3] (setting [6]); 31.3 µg/mL in assay [4]; 15.6 µg/mL in assay [5].
For the molecule `CCCOc1ccc2ccccc2c1-c1c(OCC(=O)N[C@H](CCCCN)C(=O)N[C@H](CCCNC(=N)N)C(=O)N[C@@H](CCC)C(=O)OCc2ccccc2)ccc2ccccc12.Cl.Cl` (atropisomer, axis not shown) [Compound 141, Benzyl(2S,5R,8R)-3,6,9-triaza-8-(4-aminobutyl)-5-(3-guanidinopropyl)-4,7,10-trioxo-2-propyl-11-(2-[2′-3-(propyloxy)-{1,1′}-(S)-binaphthalen-2-yloxy])undecanoate], the MIC was found to be 31.2 µg/mL in assay [1]; 62.5 µg/mL in assay [2]; 3.9 µg/mL in assay [3] (setting [6]); 31.3 µg/mL in assay [4]; 31.3 µg/mL in assay [5].
Consider `C=CC[C@H](NC(=O)[C@@H](CCCNC(=N)N)NC(=O)OCC1c2ccccc2-c2ccccc21)C(=O)OC.Cl` [Compound 69, Methyl(2S,5R)-2-allyl-3-aza-5-(9H-9-fluorenylmethyloxycarboxamido)-8-(guanidino)-4-oxooctanoate hydrochloride] (Fmoc-[dR]-[AllylGly]-OMe), for which the MIC in assay [3] (setting [7]) amounted to 125 µg/mL.
On the same count and under the same terms, next, `C=CC[C@H](NC(=O)[C@H](CCCNC(=N)N)NC(=O)OCC1c2ccccc2-c2ccccc21)C(=O)OC.Cl` [Compound 70, Methyl(2S,5S)-2-allyl-3-aza-5-(9H-9-fluorenylmethyloxycarboxamido)-8-(guanidino)-4-oxooctanoate hydrochloride] (Fmoc-Arg-[AllylGly]-OMe): 125 µg/mL; `C=CC[C@@H](NC(=O)[C@@H](CCCNC(=N)N)NC(=O)OCC1c2ccccc2-c2ccccc21)C(=O)OC.Cl` [Compound 71, Methyl(2R,5R)-2-allyl-3-aza-5-(9H-9-fluorenylmethyloxycarboxamido)-8-(guanidino)-4-oxooctanoate hydrochloride] (Fmoc-[dR]-[dAllylGly]-OMe): 125 µg/mL.
Regarding `C=CC[C@@H](NC(=O)[C@H](CCCNC(=N)N)NC(=O)OCC1c2ccccc2-c2ccccc21)C(=O)OC.Cl` [Compound 72, Methyl(2R,5S)-2-allyl-3-aza-5-(9H-9-fluorenylmethyloxycarboxamido)-8-(guanidino)-4-oxooctanoate hydrochloride] (Fmoc-Arg-[dAllylGly]-OMe), the MIC in assay [3] (setting [7]) was found to be 125 µg/mL.
The same measure, in the same setting: in the case of `C=CCOc1ccc(C[C@H](NC(=O)[C@@H](CCCCN)NC(=O)OCC2c3ccccc3-c3ccccc32)C(=O)OC)cc1.Cl` [Compound 73, Methyl(2S,5R)-2-(4-allyloxybenzyl)-9-amino-3-aza-5-(9H-9-fluorenylmethyloxycarboxamido)-4-oxononanoate hydrochloride] it was 31.3 µg/mL; in that of `C=CCOc1ccc(C[C@H](NC(=O)[C@H](CCCCN)NC(=O)OCC2c3ccccc3-c3ccccc32)C(=O)OC)cc1.Cl` [Compound 74, Methyl(2S,5S)-2-(4-allyloxybenzyl)-9-amino-3-aza-5-(9H-9-fluorenylmethyloxycarboxamido)-4-oxononanoate hydrochloride], 15.6 µg/mL.
Regarding `C=CCOc1ccc(C[C@H](NC(=O)[C@@H](CCCNC(=N)N)NC(=O)OCC2c3ccccc3-c3ccccc32)C(=O)OC)cc1.Cl` [Compound 75], the MIC in assay [3] (Example 2 compounds, S. aureus, best activity named in the text) was determined as 7.8 µg/mL; in assay [3] (setting [7]), 7.8 µg/mL.
With `C=CCOc1ccc(C[C@H](NC(C)=O)C(=O)N[C@H](CCCCN)C(=O)N[C@@H](CC=C)C(=O)OC)cc1` [Compound 77, hydrochloride], the MIC in assay [3] (Staphylococcus aureus, ATCC6538P, 18 h, read-out: Antibacterial activity (MIC μg/mL)) was determined as 125 µg/mL.
For `C=CCOc1ccc(C[C@H](NC(C)=O)C(=O)N[C@H](CCCCN)C(=O)N[C@@H](Cc2ccc(OCC=C)cc2)C(=O)OC)cc1.Cl` [Compound 83, Methyl(2S,5R,8S)-2,8-di(4-allyloxybenzyl)-5-(4-aminobutyl)-3,6,9-triaza-4,7,10-trioxoundecanoate hydrochloride], the MIC in assay [3] (setting [7]) turned out to be 125 µg/mL.
Consider `C=CCOc1ccc2ccccc2c1-c1c(OCC(=O)N[C@H](CCCN)C(=O)Nc2cccc(C(=O)NOCc3ccccc3)c2)ccc2ccccc12.Cl` [Compound 161], for which, in assay [1], the “Antibacterial activity μg/mL, E.f820” value worked out at 62.5 µg/mL. The “Antibacterial activity μg/mL, S.a” value in assay [3] (Example 2 compounds (linear cationic peptides), S. aureus, vancomycin-susceptible strain) was 15.6 µg/mL.
Take “Methyl(2S,5S)-2-(4-allyloxybenzyl)-3-aza-5-(9H-9-fluorenylmethylcarboxamido)-8-guanidino-4-oxononanoate hydrochloride [Compound 76]”: the “Antibacterial activity (MIC μg/mL)” value in assay [3] (Example 2 compounds, S. aureus, 18 h, 37° C.) was 15.6 µg/mL.

These data come from US8039430B2 (University of Wollongong, priority 2005, dated 2011).
